The values below come from PubChem BioAssay AID192 (DTP/NCI, 2004).

The assay relates to BDF1 mice, B16 melanoma ip, median survival T/C. Description: NCI In Vivo Anticancer Drug Screen. Data for tumor model B16 Melanoma (intraperitoneal) in B6D2F1 (BDF1) mice. The conditions noted are these: endpoint: median survival time, higher = longer survival. Summed up: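 Antitumor activity is assessed in mice bearing a transplanted tumor, with survival or tumor size compared against vehicle-dosed controls and expressed as T/C.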

Setting [1] is: dose: 12.5 mg/kg/injection, schedule: Q01DX009 (ip), vehicle: saline with Tween-80.
The mark [2] stands for this setting: dose: 25.0 mg/kg/injection, schedule: Q01DX009 (ip), vehicle: saline with Tween-80.
Where [3] appears, read: dose: 50.0 mg/kg/injection, schedule: Q01DX009 (ip), vehicle: saline with Tween-80.
The mark [4] stands for this setting: dose: 100.0 mg/kg/injection, schedule: Q04DX003 (ip), vehicle: Klucel (hydroxypropylcellulose) (HPC).
Where [5] appears, read: dose: 200.0 mg/kg/injection, schedule: Q04DX003 (ip), vehicle: Klucel (hydroxypropylcellulose) (HPC).
The mark [6] stands for this setting: dose: 100.0 mg/kg/injection, schedule: Q01DX009 (ip), vehicle: saline with Tween-80.
Setting [7] is: dose: 200.0 mg/kg/injection, schedule: Q01DX009 (ip), vehicle: saline with Tween-80.
Setting [8] is: dose: 400.0 mg/kg/injection, schedule: Q01DX009 (ip), vehicle: saline with Tween-80.
Setting [9] is: dose: 100.0 mg/kg/injection, schedule: Q01DX009 (ip), vehicle: Klucel (hydroxypropylcellulose) (HPC).
[10] abbreviates: dose: 6.25 mg/kg/injection, schedule: Q01DX009 (ip), vehicle: saline with Tween-80.

Inconclusive results and toxic doses are left out.

For the compound `COC(=O)[C@H]1[C@H]2C[C@@H]3c4[nH]c5ccccc5c4CCN3C[C@H]2C[C@@H](OC(=O)c2cc(OC)c(OC)c(OC)c2)[C@@H]1OC`, the T/C by setting is: (dose: 3.0 micrograms/kg/injection, schedule: Q01DX009 (ip), vehicle: saline) 90 % of control; (dose: 6.0 micrograms/kg/injection, schedule: Q01DX009 (ip), vehicle: saline) 98 % of control; (dose: 13.0 micrograms/kg/injection, schedule: Q01DX009 (ip), vehicle: saline) 95 % of control; (dose: 27.0 micrograms/kg/injection, schedule: Q01DX009 (ip), vehicle: saline) 95 % of control; (dose: 55.0 micrograms/kg/injection, schedule: Q01DX009 (ip), vehicle: saline) 86 % of control.

`CCCCOc1ccc(NC(=O)CCl)cc1`: the T/C is 99 % of control under setting [1], 100 % of control under setting [2] and 99 % of control under setting [3].

As to `O=c1sc(N=Nc2ccccc2)nn1-c1ccccc1`, the T/C reads like this: under setting [4], 94 % of control; under setting [5], 89 % of control.

As for `Clc1ccc(Sc2ccc(Cl)cc2)cc1`, the T/C by setting is: under setting [6], 101 % of control; under setting [7], 95 % of control; under setting [8], 93 % of control.

As to `O=S(=O)(Nc1ccc(F)cc1)c1ccccc1`, the T/C is 96 % of control under setting [9]; 99 % of control (dose: 200.0 mg/kg/injection, schedule: Q01DX009 (ip), vehicle: Klucel (hydroxypropylcellulose) (HPC)); 97 % of control (dose: 400.0 mg/kg/injection, schedule: Q01DX009 (ip), vehicle: Klucel (hydroxypropylcellulose) (HPC)).

For `COc1cc(O)c2c(O)c3c(c4c2c1[C@]1(C4)C(C)=CCCC1(C)C)[C@H](O)[C@@]1(O)CC(=O)C(C(N)=O)=C(O)[C@@]1(O)C3=O`, the T/C was 97 % of control (dose: 6.0 mg/kg/injection, schedule: Q01DX009 (ip), vehicle: saline with Tween-80); 112 % of control (dose: 6.25 mg/kg/injection, schedule: Q04DX003 (ip), vehicle: saline with Tween-80); 116 % of control (dose: 12.5 mg/kg/injection, schedule: Q04DX003 (ip), vehicle: saline with Tween-80); 121 % of control (dose: 25.0 mg/kg/injection, schedule: Q04DX003 (ip), vehicle: saline with Tween-80).

For the compound `O=C(CCN1CC1)OCCOC(=O)CCN1CC1`, the T/C (dose: 1.5 mg/kg/injection, schedule: Q01DX009 (ip), vehicle: saline) was 118 % of control and the T/C (dose: 3.0 mg/kg/injection, schedule: Q01DX009 (ip), vehicle: saline) was 110 % of control.

For `COc1cc(Cl)ccc1C`, the T/C (dose: 37.5 mg/kg/injection, schedule: Q01DX001 (ip), vehicle: Klucel (hydroxypropylcellulose) (HPC)) was 103 % of control; the T/C (dose: 75.0 mg/kg/injection, schedule: Q01DX001 (ip), vehicle: Klucel (hydroxypropylcellulose) (HPC)) was 182 % of control; the T/C (dose: 150.0 mg/kg/injection, schedule: Q01DX001 (ip), vehicle: Klucel (hydroxypropylcellulose) (HPC)) is 116 % of control; the T/C (dose: 300.0 mg/kg/injection, schedule: Q01DX001 (ip), vehicle: Klucel (hydroxypropylcellulose) (HPC)) is 100 % of control.

Turning to `CCCCOB=O`, the T/C under setting [3] was 95 % of control, the T/C under setting [6] is 99 % of control and the T/C under setting [7] was 89 % of control.

As to `CC[C@@]1(O)C(=O)OCc2c1cc1n(c2=O)Cc2cc3c(OC)cccc3nc2-1`, the T/C is, setting by setting: (dose: 0.39 mg/kg/injection, schedule: Q01DX009 (ip), vehicle: other) 150 % of control; (dose: 0.79 mg/kg/injection, schedule: Q01DX009 (ip), vehicle: other) 161 % of control; (dose: 2.0 mg/kg/injection, schedule: Q01DX009 (ip), vehicle: Klucel (hydroxypropylcellulose) (HPC)) 175 % of control; (dose: 4.0 mg/kg/injection, schedule: Q01DX009 (ip), vehicle: carboxymethylcellulose (CMC)) 172 % of control.

With `CC1(C)N=C(N)N=C(N)N1c1ccc(OCCNS(=O)(=O)c2cccc(S(=O)(=O)F)c2)c(Cl)c1`, the T/C is 107 % of control under setting [1], 113 % of control under setting [2] and 120 % of control under setting [3].

Consider `CC(=O)Oc1ccc(N2C(=O)C3C(C2=O)C2c4ccccc4C3C3CCCCN32)cc1` (centres undefined) (tested in a mixture with another compound), for which the T/C reads like this: (dose: 12.5 mg/kg/injection, schedule: Q01DX009 (ip), vehicle: water) 103 % of control; (dose: 25.0 mg/kg/injection, schedule: Q01DX009 (ip), vehicle: water) 97 % of control; (dose: 50.0 mg/kg/injection, schedule: Q01DX009 (ip), vehicle: water) 104 % of control; (dose: 100.0 mg/kg/injection, schedule: Q01DX009 (ip), vehicle: water) 97 % of control.

On to `CCCCNC(C)(C)C(SS)c1ccco1` (centres undefined), for which the T/C (dose: 3.0 mg/kg/injection, schedule: Q01DX009 (ip), vehicle: alcohol) was 107 % of control; the T/C (dose: 6.0 mg/kg/injection, schedule: Q01DX009 (ip), vehicle: alcohol) is 107 % of control; the T/C (dose: 12.0 mg/kg/injection, schedule: Q01DX009 (ip), vehicle: alcohol) is 112 % of control; the T/C (dose: 37.5 mg/kg/injection, schedule: Q01DX009 (ip), vehicle: saline) was 87 % of control; the T/C (dose: 55.0 mg/kg/injection, schedule: Q01DX009 (ip), vehicle: saline) is 106 % of control.

`CC[CH2][Pb]([Cl])([CH2]CC)[CH2]CC`: the T/C reads like this: (dose: 0.09 mg/kg/injection, schedule: Q01DX009 (ip), vehicle: DMSO) 100 % of control; (dose: 0.18 mg/kg/injection, schedule: Q01DX009 (ip), vehicle: DMSO) 92 % of control; (dose: 0.37 mg/kg/injection, schedule: Q01DX009 (ip), vehicle: DMSO) 95 % of control; (dose: 0.75 mg/kg/injection, schedule: Q01DX009 (ip), vehicle: DMSO) 95 % of control; (dose: 1.5 mg/kg/injection, schedule: Q01DX009 (ip), vehicle: DMSO) 92 % of control.

For `O=[N+]([O-])/C=C/c1ccc2ccccc2c1`, the T/C is 95 % of control (dose: 50.0 mg/kg/injection, schedule: Q01DX009 (ip), vehicle: Klucel (hydroxypropylcellulose) (HPC)) and 107 % of control under setting [9].

In the case of `COC1=C(OC)C(=O)C(SC/C=C(\C)CCCC(C)CCCC(C)CCCC(C)C)=CC1=O` (centres undefined), the T/C is, setting by setting: under setting [1], 108 % of control; under setting [2], 105 % of control; under setting [3], 110 % of control; under setting [6], 115 % of control.

Take `CCC(=O)Oc1[nH]c(C)c(C(C)=O)c1C`: the T/C runs as follows: under setting [6], 102 % of control; under setting [7], 100 % of control; under setting [8], 95 % of control.

Regarding `Cc1cc2ncn(C(=O)Nc3ccccc3)c2cc1C`, the T/C runs as follows: under setting [6], 100 % of control; under setting [7], 95 % of control; under setting [8], 88 % of control.

In the case of `CS/C([S-])=N/[NH-].CS/C([S-])=N/[NH-].[Pd]`, the T/C was 98 % of control (dose: 3.13 mg/kg/injection, schedule: Q01DX009 (ip), vehicle: saline with Tween-80); 101 % of control under setting [10]; 99 % of control under setting [1].

As to `Cc1ccc(S(=O)(=O)N=S2CCCC2)cc1`, the T/C is 100 % of control (dose: 50.0 mg/kg/injection, schedule: Q04DX003 (ip), vehicle: Klucel (hydroxypropylcellulose) (HPC)); 102 % of control under setting [4]; 103 % of control under setting [5]; 102 % of control (dose: 400.0 mg/kg/injection, schedule: Q04DX003 (ip), vehicle: Klucel (hydroxypropylcellulose) (HPC)).

Regarding `COC(=O)C(F)C(Br)C(=O)OC` (centres undefined), the T/C was 105 % of control (dose: 3.12 mg/kg/injection, schedule: Q01DX009 (ip), vehicle: saline with Tween-80); 99 % of control under setting [10]; 94 % of control under setting [1]; 99 % of control under setting [2]; 98 % of control under setting [3].

Take `CN(C)CCN1c2ccccc2Sc2ccccc21`: the T/C was 110 % of control (dose: 6.25 mg/kg/injection, schedule: Q01DX009 (ip), vehicle: saline); 97 % of control (dose: 12.5 mg/kg/injection, schedule: Q01DX009 (ip), vehicle: saline); 92 % of control (dose: 25.0 mg/kg/injection, schedule: Q01DX009 (ip), vehicle: saline); 97 % of control (dose: 50.0 mg/kg/injection, schedule: Q01DX009 (ip), vehicle: saline); 92 % of control (dose: 100.0 mg/kg/injection, schedule: Q01DX009 (ip), vehicle: saline).
